Experimental data reported in ChEMBL document CHEMBL3046389, “Synthesis and biological evaluation of novel hydroquinone dimethyl ethers as potential anticancer and antimicrobial agents” (2013).
In brackets after ≈: the same amount, converted by molar mass.

Key:
Format in all cases: functional
HCC 2998 [1] = assay: Growth inhibition of Homo sapiens (human) HCC2998 cells at 10 uM after 48 hr by SRB assay; conditions: HCC 2998, 48 h, read-out: GI
DU-145 = assay: Anticancer activity against Homo sapiens (human) DU145 cells after 48 hr by SRB assay; conditions: DU-145, 48 h
T47D [2] = assay: Growth inhibition of Homo sapiens (human) T47D cells at 10 uM after 48 hr by SRB assay; conditions: read-out: GI
UO-31 = assay: Anticancer activity against Homo sapiens (human) UO31 cells after 48 hr by SRB assay; conditions: UO-31, 48 h
SF-295 = assay: Growth inhibition of Homo sapiens (human) SF295 cells at 10 uM after 48 hr by SRB assay; conditions: SF-295, 48 h, read-out: GI
T47D [3] = assay: Anticancer activity against Homo sapiens (human) T47D cells after 48 hr by SRB assay
MDA-MB-435 = assay: Growth inhibition of Homo sapiens (human) MDA-MB-435 cells at 10 uM after 48 hr by SRB assay; conditions: MDA-MB-435, 48 h, read-out: GI
MDA-MB-231 = assay: Anticancer activity against Homo sapiens (human) MDA-MB-231/ATCC cells after 48 hr by SRB assay; conditions: MDA-MB-231, 48 h
CAKI-1 = assay: Anticancer activity against Homo sapiens (human) CAKI-1 cells after 48 hr by SRB assay; conditions: CAKI-1, 48 h
NCI-H23 = assay: Growth inhibition of Homo sapiens (human) NCI-H23 cells at 10 uM after 48 hr by SRB assay; conditions: NCI-H23, 48 h, read-out: GI
PC-3 = assay: Anticancer activity against Homo sapiens (human) PC3 cells after 48 hr by SRB assay; conditions: PC-3, 48 h
Malme-3M = assay: Growth inhibition of Homo sapiens (human) MALME-3M cells at 10 uM after 48 hr by SRB assay; conditions: read-out: GI
COLO 205 = assay: Anticancer activity against Homo sapiens (human) COLO205 cells after 48 hr by SRB assay; conditions: COLO 205, 48 h
HCT-116 = assay: Growth inhibition of Homo sapiens (human) HCT116 cells at 10 uM after 48 hr by SRB assay; conditions: HCT-116, 48 h, read-out: GI
KM12 [4] = assay: Anticancer activity against Homo sapiens (human) KM12 cells after 48 hr by SRB assay; conditions: KM12, 48 h
TK-10 = assay: Growth inhibition of Homo sapiens (human) TK10 cells at 10 uM after 48 hr by SRB assay; conditions: TK-10, 48 h, read-out: GI
U-251 [5] = assay: Growth inhibition of Homo sapiens (human) U251 cells at 10 uM after 48 hr by SRB assay; conditions: U-251, 48 h, read-out: GI
MDA-MB-468 = assay: Anticancer activity against Homo sapiens (human) MDA-MB-468 cells after 48 hr by SRB assay; conditions: MDA-MB-468, 48 h
UACC-62 [6] = assay: Anticancer activity against Homo sapiens (human) UACC62 cells after 48 hr by SRB assay; conditions: UACC-62, 48 h
OVCAR-3 = assay: Growth inhibition of Homo sapiens (human) OVCAR3 cells at 10 uM after 48 hr by SRB assay; conditions: OVCAR-3, 48 h, read-out: GI
786-0 = assay: Growth inhibition of Homo sapiens (human) 786-0 cells at 10 uM after 48 hr by SRB assay; conditions: 786-0, 48 h, read-out: GI
SF-539 = assay: Growth inhibition of Homo sapiens (human) SF539 cells at 10 uM after 48 hr by SRB assay; conditions: SF-539, 48 h, read-out: GI
UACC-62 [7] = assay: Growth inhibition of Homo sapiens (human) UACC62 cells at 10 uM after 48 hr by SRB assay; conditions: UACC-62, 48 h, read-out: GI
OVCAR-8 = assay: Growth inhibition of Homo sapiens (human) OVCAR8 cells at 10 uM after 48 hr by SRB assay; conditions: OVCAR-8, 48 h, read-out: GI
Staphylococcus aureus = assay: Antimicrobial activity against Staphylococcus aureus DSM 1104 after 48 hr by two-fold serial broth dilution method; conditions: DSM 1104, 48 h
Hs-578T = assay: Growth inhibition of Homo sapiens (human) Hs 578T cells at 10 uM after 48 hr by SRB assay; conditions: read-out: GI
SK-MEL-5 = assay: Anticancer activity against Homo sapiens (human) SK-MEL-5 cells after 48 hr by SRB assay; conditions: SK-MEL-5, 48 h
BT-549 = assay: Anticancer activity against Homo sapiens (human) BT549 cells after 48 hr by SRB assay; conditions: BT-549, 48 h
SNB-75 = assay: Growth inhibition of Homo sapiens (human) SNB75 cells at 10 uM after 48 hr by SRB assay; conditions: SNB-75, 48 h, read-out: GI
KM12 [8] = assay: Growth inhibition of Homo sapiens (human) KM12 cells at 10 uM after 48 hr by SRB assay; conditions: KM12, 48 h, read-out: GI
Bacillus subtilis = assay: Antimicrobial activity against Bacillus subtilis ATCC 6633 after 48 hr by two-fold serial broth dilution method; conditions: ATCC 6633, 48 h
HCT-15 = assay: Growth inhibition of Homo sapiens (human) HCT15 cells at 10 uM after 48 hr by SRB assay; conditions: HCT-15, 48 h, read-out: GI
HCC 2998 [9] = assay: Anticancer activity against Homo sapiens (human) HCC2998 cells after 48 hr by SRB assay; conditions: HCC 2998, 48 h
U-251 [10] = assay: Anticancer activity against Homo sapiens (human) U251 cells after 48 hr by SRB assay; conditions: U-251, 48 h
[11] = read-out: LC50 (the source's name)

Molecule `COc1ccc(OC)c(/C=C/C(=O)N/N=C/c2ccc(Cl)cc2)c1` has an inhibition of growth at 10 µM (HCC 2998 [1]) of 97.7%, a GI50 (DU-145) of 217 nM and a TGI (DU-145) of 8400 nM. The CC50 (DU-145; [11]) was > 100000 nM, the inhibition of growth at 10 µM (T47D [2]) was 70.5% and the GI50 (UO-31) was 3370 nM. For the same molecule, the LC50 (50% lethal concentration) (UO-31) was > 100000 nM, the TGI (UO-31) was > 100000 nM and the inhibition of growth at 10 µM (SF-295) was 68.2%. The GI50 (T47D [3]) was 160 nM, the TGI (T47D [3]) was > 100000 nM and the CC50 (T47D [3]; [11]) was > 100000 nM. The inhibition of growth at 10 µM (MDA-MB-435) was 132%, the GI50 (MDA-MB-231) was 1370 nM and the TGI (MDA-MB-231) was > 100000 nM. For the same molecule, the CC50 (MDA-MB-231; [11]) was > 100000 nM, the GI50 (CAKI-1) was 87.9 nM and the TGI (CAKI-1) was > 100000 nM. The CC50 (CAKI-1; [11]) was > 100000 nM, the inhibition of growth at 10 µM (NCI-H23) was 65.2% and the GI50 (PC-3) was 169 nM. For the same molecule, the TGI (PC-3) was > 100000 nM, the CC50 (PC-3; [11]) was > 100000 nM and the inhibition of growth at 10 µM (Malme-3M) was 45.9%. The GI50 (COLO 205) was 153 nM, the TGI (COLO 205) was 595 nM and the CC50 (COLO 205; [11]) was 63900 nM. It also gave an inhibition of growth at 10 µM (HCT-116) of 94.3%, a GI50 (KM12 [4]) of 52.2 nM and a TGI (KM12 [4]) of 8480 nM. The CC50 (KM12 [4]; [11]) was > 100000 nM, the inhibition of growth at 10 µM (TK-10) was 49% and the inhibition of growth at 10 µM (U-251 [5]) was 81.6%. The GI50 (MDA-MB-468) was 142 nM, the TGI (MDA-MB-468) was 445 nM and the CC50 (MDA-MB-468; [11]) was > 100000 nM. The GI50 (UACC-62 [6]) was 68 nM, the LC50 (UACC-62 [6]) was > 100000 nM and the TGI (UACC-62 [6]) was > 100000 nM. The inhibition of growth at 10 µM (OVCAR-3) was 143%, the inhibition of growth at 10 µM (786-0) was 83.3% and the inhibition of growth at 10 µM (SF-539) was 143%. The inhibition of growth at 10 µM (UACC-62 [7]) was 57.9%, the inhibition of growth at 10 µM (OVCAR-8) was 79% and the MBC (Staphylococcus aureus) was 100 µg/mL (≈ 290 µM). It also gave an MIC (Staphylococcus aureus) of 100 µg/mL (≈ 290 µM), an inhibition of growth at 10 µM (Hs-578T) of 102% and a GI50 (SK-MEL-5) of 58.1 nM. For the same molecule, the LC50 (SK-MEL-5) was > 100000 nM, the GI50 (BT-549) was 1170 nM and the TGI (BT-549) was > 100000 nM. For the same molecule, the CC50 (BT-549; [11]) was > 100000 nM, the inhibition of growth at 10 µM (SNB-75) was 56% and the inhibition of growth at 10 µM (KM12 [8]) was 82%. It also gave an MBC (Bacillus subtilis) of 50 µg/mL (≈ 145 µM), an MIC (Bacillus subtilis) of 50 µg/mL (≈ 145 µM) and an inhibition of growth at 10 µM (HCT-15) of 70.6%. The GI50 (HCC 2998 [9]) was 139 nM, the TGI (HCC 2998 [9]) was 1190 nM and the CC50 (HCC 2998 [9]; [11]) was 6520 nM. For the same molecule, the GI50 (U-251 [10]) was 184 nM, the TGI (U-251 [10]) was 1490 nM and the CC50 (U-251 [10]; [11]) was > 100000 nM.
